PubChem BioAssay (NCI)
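Following 48 hours of exposure in 96-well plates, responses at five concentrations were used to interpolate endpoints linearly. GI50 = concentration required for 50% inhibition of growth. Definition used: TGI = concentration required for complete inhibition of growth.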

Legend:
Experiment in all cases: NCI tumour cell line growth inhibition, 48 h
SNB-78 CNS = system: SNB-78 CNS
DMS 114 small cell lung = system: DMS 114 small cell lung
XF 498 CNS = system: XF 498 CNS
DMS 273 small cell lung = system: DMS 273 small cell lung
KM20L2 colon = system: KM20L2 colon
DLD-1 colon = system: DLD-1 colon
M19-MEL melanoma = system: M19-MEL melanoma
RXF-631 renal = system: RXF-631 renal
HOP-18 NSCLC = system: HOP-18 NSCLC
P388 leukemia = system: P388 leukemia
SN12K1 renal = system: SN12K1 renal
P388/ADR leukemia = system: P388/ADR leukemia

SMILES | TGI (SNB-78 CNS) [µM] | TGI (DMS 114 small cell lung) [µM] | TGI (XF 498 CNS) [µM] | TGI (DMS 273 small cell lung) [µM] | TGI (KM20L2 colon) [µM] | TGI (DLD-1 colon) [µM] | TGI (M19-MEL melanoma) [µM] | TGI (RXF-631 renal) [µM] | TGI (HOP-18 NSCLC) [µM] | TGI (P388 leukemia) [µM] | TGI (SN12K1 renal) [µM] | TGI (P388/ADR leukemia) [µM] | GI50 (SNB-78 CNS) [µM] | GI50 (KM20L2 colon) [µM] | GI50 (DLD-1 colon) [µM]
CC1(C)N=C(c2ccccn2)C(c2ccccn2)=NC1(C)C | > 100 | > 100 | > 100 | > 100 | > 100 | > 100 | > 100 | > 100 |  |  |  |  |  |  | 
CCCCNC(=O)/N=C/c1c(O)c2ccccc2oc1=O | > 100 | > 100 | 65.1 | > 100 | > 100 |  | > 100 |  |  |  |  |  |  |  | 
O=c1oc2ccccc2c(O)c1C(C/C(CCN1CCCC1)=N\Nc1ccccc1)c1ccccc1 (stereo not given) | > 100 |  | > 100 |  | > 100 | > 100 | > 100 |  | > 100 |  |  |  |  |  | 
COc1ccc(Sc2ccccc2N)cc1 | 97.3 | > 100 | 40 | > 100 | > 100 | > 100 | > 100 |  | > 100 |  |  |  |  |  | 
CN(C)/N=N/c1nc[nH]c1C(N)=O |  | 96.8 | 84.5 | 88.3 |  |  | > 94.7 |  | 39.2 | > 98.3 | 92.6 | > 96.5 |  |  | 
O=C1NCCS(=O)(=O)N2CCC[C@@H]12 | > 100 | > 100 |  |  | > 100 | > 100 | > 100 | > 100 | > 100 |  |  |  |  |  | 
Cc1ccc(CCC(=O)C(=O)O)s1 | > 100 | > 100 | > 100 | > 100 | > 100 |  | > 100 | > 100 | > 100 |  |  |  |  |  | 
COc1ccc2c(c1)OC[C@@H]1c3cc(O)c(OCc4ccccc4)cc3O[C@H]21 | 92.3 | 82.6 | 68.4 | > 100 | 97.2 | > 100 | 95.5 | > 100 | > 100 |  |  |  |  |  | 
CCCC(=O)[O-].N.N.N.N.N.[Co+3].[O-][Cl+3]([O-])([O-])[O-] | > 100 |  |  |  | > 100 | > 100 |  |  |  |  |  |  | > 100 | > 100 | > 100
COC(=O)C(NC(=O)c1ccccc1)C(c1ccc(Cl)cc1)P(=O)(OC)OC (stereo not given) | > 100 |  | > 100 | > 100 | > 100 | > 100 | > 100 |  |  |  |  |  |  |  | 
C/C=C(/C)C(=O)O[C@H]1[C@H](O)CC(c2ccc3c(c2O)C(O)=C2C(=O)C4(OC)C(O)=C(C(N)=O)C(=O)[C@H](CC(=O)c5ccccc5O)C4CC2[C@@]3(C)OC)O[C@@H]1C (stereo not given in full) |  | 0.0292 |  |  | 0.0623 | 3.85 | 0.768 |  | 3.07 |  |  |  |  |  | 
C=C1C(=O)OC2CC3(C)OC3CC/C(C)=C/C(OC(C)=O)C12 (stereo not given) | 35.1 | 23 | 4.12 | 31.2 | 20 | 7.81 | 22.3 |  | 23.5 |  |  |  |  |  | 
COC1OC2=CCC3C(=O)NC(=O)C3C2[C@H](OCc2ccccc2)C1OCc1ccccc1 (stereo not given in full) | 4.12 |  |  |  | 5.59 | 3.71 |  |  | 6.37 |  |  |  |  |  | 
O=C(N/N=C/c1cc(Br)cc(Br)c1[O-])c1ccccc1O.O=C(N/N=C/c1cc(Br)cc(Br)c1[O-])c1ccccc1O.[Ni+2] |  |  |  |  | 1.85 |  |  |  |  |  |  |  |  |  | 
